The subject of the experiment is PGC-1α. The experiment is described as follows: In vivo PGC-1α expression in liver of LPS-treated mice (ELISA). Also on record: species or system C57BL/6 mice. The note with it: for PGC-1α level / PGC-1α levels: liver, male C57BL/6 mice, LPS 3 mg/Kg IP + compound 10 mg/kg PO BID, 24 h post LPS; for PGC-1α levels: third set: Control 38327, LPS alone 16860. On the procedure:
C57BL/6 mice were procured from Vivo Bio Tech Ltd. Male mice were used for the study within an age range of 7 to 8 weeks. Body weight for these mice ranged from 20 g to 25 g. Animals were housed in a group of 6 in individually ventilated cages with temperature of 22±3° C., a relative humidity of 50 to 60%. The bottom of the cages was layered with sterilized corn cob. Animals were provided with gamma irradiated feed and autoclaved drinking water ad-libitum. The IVCs were maintained at an environment controlled (Centrally Air-Conditioned) room at a temperature of 22±3° C., a relative humidity of 50 to 60%, light intensity of 250-300 lux and a 12 hour light-dark cycle and noise intensity of <85 db.
Method of Preparation: LPS was dosed at 3 mg/kg in a dose volume of 10 ml/kg. For this, 0.3 mg/ml of LPS solution (Micronized suspension) was prepared. Butter paper was placed on analytical balance, tarred and LPS was placed on butter paper and its weight was noted down. LPS was transferred to 15 ml falcon tube. Then required amount of normal saline was added to it to make it 0.3 mg/ml. The solution was vortexed properly for 5 minutes and placed on ice. LPS solution was vortexed every time before aspiration and injection.
LPS was dosed at 3 mg/kg. Each test compound was dosed at 10 mg/kg, 2 hour and 15 min post LPS administration.
0.5% CMC was used as a vehicle with a dose volume of 10 ml/kg. An IP route was used for LPS, and a PO route was used for each test compound. Animals were sacrificed 24 hours post LPS dosing, and plasma were collected. PGC-1α level was measured in liver samples, and other tissues were stored for future analysis. PGC-1α level was checked using ELISA kit—CUSABIO Mouse PPARGCIA ELISA kit.
Protocol: One day before start of the experiment C57BL/6 Mice (Male, 6-7-week-old) were randomized on the basis of their body weight and were divided into groups. All the cages were assigned the respective group name. Animals inside each cage were marked on the base of the tails with permanent marker to distinguish each animal. Mice were fasted overnight. Next day morning animals were dosed with test item. Group 1 (Control) and Group 2 (LPS) Animals were dosed with vehicle (0.5% CMC). Test items were prepared in 0.5% CMC by trituration in mortar and pestle and addition of CMC drop by drop. 2 hour post test item/vehicle dosing animals were administered with LPS through IP route at 3 mg/kg of body weight. Group 1 (Control) animals were administered with saline. 0.25 hour post LPS administration, animals were again dosed with test item/vehicle. Post dosing, animals were returned to their respective cages and kept until termination of the study. No feed was offered to any group. Animals were provided with water. 24 hour post LPS administration, blood was collected from each animal under influence of mild isoflurane anesthesia through retro-orbital technique. Animals were sacrificed by CO2 asphyxiation technique. Post-termination, animals were dissected and vital organs, liver, brain, skeleton muscle were collected in Eppendorf tubes and flash frozen in liquid nitrogen. Serum was collected from whole blood by centrifuging it at 4° C. at 10,000 RPM and for 10 minutes. (Blood was left for 2 hour for coagulation before centrifugation) After completion of the experiment, all collected samples were stored at −80° C. until analysis.
Assay Methods/Protocol: The mortar was chilled with liquid nitrogen and then the small tissue pieces were grinded in the presence of liquid nitrogen to a fine powder. Immediately after grinding, transferred small amount of tissue powder to a 1.5 ml micro centrifuge tube containing 1.0 ml lysis buffer (RIPA buffer+Protease inhibitor). The samples were then incubated on ice for 2 hours. The samples were vortexed every 15 minutes. The samples were then centrifuged at 13000×g for 15 minutes at 2-8° C. After centrifugation the supernatant was removed carefully and pellet was discarded. […]
On the technique in general: ELISA stands for enzyme-linked immunosorbent assay.

The mark [1] stands for this setting: as E21, relative to Control = 100, LPS alone 51.
[2] abbreviates: first set: Control 35303, LPS alone 18139.
Setting [3] is: as E23, relative to Control = 100, LPS alone 66.
[4] abbreviates: second set: Control 25677, LPS alone 16956.
Where [5] appears, read: as E25, relative to Control = 100, LPS alone 44.

From US20240254135A1, “POLYPHENOL COMPOUNDS” (Epirium Bio Inc., priority 2022, published 2024) come the findings set out here.

With `COc1cc(C2Oc3ccccc3CC2O)ccc1F` (single isomer, unassigned) [Compound 75b, 2-(4-fluoro-3-methoxyphenyl)chroman-3-ol], the “PGC-1α level (%)” value under setting [1] worked out at 92%. Also, the “PGC-1α level” value under setting [2] turned out to be 32354 pg/mL.

`Oc1cc(O)c2c(c1)OC(c1ccc(O)c(F)c1)C(O)C2` (single isomer, unassigned) [Compound 76b, 2-(3-fluoro-4-hydroxyphenyl)chromane-3,5,7-triol]: under setting [3], the “PGC-1α level (%)” value worked out at 81%. Also, the “PGC-1α level” value under setting [4] came out at 20790 pg/mL.

For the compound `Oc1ccc2c(c1)OC(c1ccc(O)c(C(F)(F)F)c1)C(O)C2` (single isomer, unassigned) [Compound 77b, 2-(4-hydroxy-3-(trifluoromethyl)phenyl)chromane-3,7-diol], under setting [3], the “PGC-1α level (%)” value was 148%. The “PGC-1α level” value under setting [4] worked out at 37954 pg/mL.

With `Oc1cc(O)c2c(c1)OC(c1ccccc1)C(O)C2` (single isomer, unassigned) [Compound 78a, 2-phenylchromane-3,5,7-triol], the “PGC-1α levels” value amounted to 36967 pg/mL. For the same compound, the “PGC-1α level (%)” value under setting [5] amounted to 96%.

As for `Oc1cc(O)c2c(c1)O[C@H](c1ccc(O)c(O)c1)[C@H](O)C2` [Epicatechin, (+)Epicatechin, reference compound], the “PGC-1α levels” value was 27272 pg/mL. The “PGC-1α level (%)” value under setting [1] was 90%. In addition, the “PGC-1α level (%)” value under setting [3] amounted to 122%. For the same compound, the “PGC-1α level (%)” value under setting [5] worked out at 71%. The “PGC-1α level” value under setting [2] was 31729 pg/mL. Besides, the “PGC-1α level” value under setting [4] came out at 31225 pg/mL.
